Assay [1] addresses T1, recombinant MDM2 protein (Homo sapiens (Human), UniProt Q00987). The settings on record: competitive binding vs fluorescently labeled peptide probe, 10% DMSO, pH 7.2; read-out: Fluorescence Polarization Assay KI. The protocol:
The compounds binding to MDM2 were determined by a quantitative fluorescence polarization binding assay using a recombinant MDM2 protein and fluorescently labeled peptide probes using a BioTek Cytation 5 machine. Compounds were tested in 10% DMSO, 100 mM potassium phosphate pH 7.2, 100 ug/ml bovine γ-globulin, 0.02% (w/v) sodium azide and 0.01% (v/v) triton X-100. KI values of tested compounds were determined in a dose-dependent competitive binding experiment by fitting the sigmoidal dose-dependent FP increases as a function of […] concentrations using Graphpad Prism software.

Assay [2] deals with T1, recombinant MDM2 protein. Description: biochemical. Format: binding. How it is done:
Qualitative evaluation of compound binding to MDM2 was determined using a fluorescence-based thermal shift assay with a Roche LC480 lightcycler. Each experiment was performed in ˜30 mins with ramping up of temperature to monitor thermal denaturation of MDM2. Compounds at 0.16 mM, 0.08 mM and 0.04 mM were added to recombinant MDM2 protein and SYPRO orange dye in 5% DMSO 50 mM Bis-Tris Propane pH 8.0 and 100 mM NaCl. Positive thermal shift was indicative of compound binding to the proteins of interest.

Molecules are shown by their SMILES.

T1 sequence (Q00987 whole entry): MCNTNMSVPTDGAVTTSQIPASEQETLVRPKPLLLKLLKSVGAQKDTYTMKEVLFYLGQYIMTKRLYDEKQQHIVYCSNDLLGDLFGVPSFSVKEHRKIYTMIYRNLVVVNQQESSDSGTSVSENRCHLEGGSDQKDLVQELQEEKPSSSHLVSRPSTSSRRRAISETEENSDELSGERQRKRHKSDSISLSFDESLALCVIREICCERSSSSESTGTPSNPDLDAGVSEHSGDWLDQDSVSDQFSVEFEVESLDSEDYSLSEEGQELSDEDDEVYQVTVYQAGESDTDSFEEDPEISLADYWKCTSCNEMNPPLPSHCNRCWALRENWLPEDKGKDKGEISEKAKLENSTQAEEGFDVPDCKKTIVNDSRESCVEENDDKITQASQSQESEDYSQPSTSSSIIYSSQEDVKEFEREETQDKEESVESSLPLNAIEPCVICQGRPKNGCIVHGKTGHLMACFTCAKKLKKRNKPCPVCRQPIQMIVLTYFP

Turning to `CC(=O)Nc1cc(C(F)(F)F)cnc1N1CCN(CC(=O)O)CC1c1ccc(Cl)cc1` (stereo not shown) [Compound 2, 2-(4-(3-acetamido-5-(trifluoromethyl)pyridin-2-yl)-3-(4-chlorophenyl)piperazin-1-yl)acetic acid], the Ki on recombinant MDM2 protein [1] was found to be 118 µM. Also, the ΔTm at 40 µM at recombinant MDM2 protein [2] (read-out: Thermal Shift 0.04 mM) was 0 °C. Besides, the ΔTm at 80 µM at recombinant MDM2 protein [2] (read-out: Thermal Shift 0.08 mM) was 0 °C. Besides, the ΔTm at 160 µM at recombinant MDM2 protein [2] (read-out: Thermal Shift 0.16 mM) was determined as 0.6 °C.

The values above are taken from patent US11504381B1 (priority 2021, dated 2022).
